According to the supplement of paper PMC13380429:

How the values were obtained:
Calu-3 [1] = experiment: drug sensitivity score (DSS) for viability; higher = more toxic; extreme values may be limits of the assay; details: 72 h
U2OS [2] = experiment: as above; details: 72 h
Vero E6 [3] = experiment: as above; details: 72 h
Caco-2 [4] = experiment: as above; details: 72 h
HepG2 [5] = experiment: as above; details: 72 h
Calu-3 [6] = experiment: cell viability relative to DMSO; higher = less toxic; details: 72 h
U2OS [7] = experiment: as above; details: 72 h
Vero E6 [8] = experiment: as above; details: 72 h
Caco-2 [9] = experiment: as above; details: 72 h
HepG2 [10] = experiment: as above; details: 72 h
Calu-3 [11] = experiment: relative viability EC50 (midpoint between 100% and the lowest measured viability); higher = less toxic; details: 72 h
U2OS [12] = experiment: as above; details: 72 h
Vero E6 [13] = experiment: as above; details: 72 h
Caco-2 [14] = experiment: as above; details: 72 h
HepG2 [15] = experiment: as above; details: 72 h
[16] = system: A549-ACE2 infected with SARS-CoV-2; experiment: cell count relative to DMSO; higher = less toxic; details: 24 h
[17] = system: A549-ACE2 infected with SARS-CoV-2; experiment: SARS-CoV-2 infection rate relative to DMSO; higher = more infection; details: 24 h
A549-ACE2 = experiment: drug-induced phospholipidosis relative to tamoxifen; higher = more phospholipidosis; details: 24 h
[18] = system: A549-ACE2 infected with SARS-CoV-2; experiment: morphology score (similarity to uninfected cells); higher = more like uninfected cells; details: 24 h

CO[C@H]1/C=C/O[C@@]2(C)Oc3c(C)c(O)c4c(O)c(c(/C=N/N5CCN(C6CCCC6)CC5)c(O)c4c3C2=O)NC(=O)/C(C)=C\C=C\[C@H](C)[C@H](O)[C@@H](C)[C@@H](O)[C@@H](C)[C@H](OC(C)=O)[C@@H]1C [rifapentine]
Details	drug sensitivity score	relative viability EC50 [µM]
Caco-2 [4]	0.7	–
Caco-2 [14]	–	> 10
Calu-3 [1]	0	–
Calu-3 [11]	–	> 10
HepG2 [5]	0	–
HepG2 [15]	–	> 10
U2OS [2]	0.2	–
U2OS [12]	–	> 10
Vero E6 [3]	0	–
Vero E6 [13]	–	> 10

cell viability [%]
Details	Caco-2 [9]	Calu-3 [6]	HepG2 [10]	U2OS [7]	Vero E6 [8]
1 nM	95.2	101	96.4	96.3	96.2
10 nM	94.9	104	92.9	103	93.7
100 nM	94.4	94.4	94	95.3	97
1000 nM	102	111	97.7	100	89.1
10000 nM	77.6	88.2	89.3	85.7	97.7

OCc1ccccc1O [salicyl-alcohol]
Details	drug sensitivity score	relative viability EC50 [µM]
Caco-2 [4]	0	–
Caco-2 [14]	–	> 10
Calu-3 [1]	0	–
Calu-3 [11]	–	> 10
HepG2 [5]	0	–
HepG2 [15]	–	> 10
U2OS [2]	0	–
U2OS [12]	–	> 10
Vero E6 [3]	0	–
Vero E6 [13]	–	> 10

cell viability [%]
Details	Caco-2 [9]	Calu-3 [6]	HepG2 [10]	U2OS [7]	Vero E6 [8]
1 nM	101	95.5	104	103	98.8
10 nM	97.3	109	98.2	95.4	104
100 nM	111	108	85.7	101	95.5
1000 nM	107	94.2	105	94.4	105
10000 nM	102	96.9	94.2	98.6	110

CN(C)C/C=C/C(=O)Nc1ccc(C(=O)Nc2cccc(Nc3ncc(Cl)c(-c4c[nH]c5ccccc45)n3)c2)cc1 [THZ1]
Details	drug sensitivity score	relative viability EC50 [µM]
Caco-2 [4]	13.5	–
Caco-2 [14]	–	0.185
Calu-3 [1]	14.4	–
Calu-3 [11]	–	0.107
HepG2 [5]	30.2	–
HepG2 [15]	–	0.0248
U2OS [2]	22.6	–
U2OS [12]	–	0.11
Vero E6 [3]	11.5	–
Vero E6 [13]	–	0.811

cell viability [%]
Details	Caco-2 [9]	Calu-3 [6]	HepG2 [10]	U2OS [7]	Vero E6 [8]
1 nM	95.6	96.1	108	97	103
10 nM	104	97	87.2	102	101
100 nM	88.9	71.8	10	58.2	99.4
1000 nM	36.9	39.6	5.4	6.2	44.4
10000 nM	37	40.7	4.8	4.9	11.4

CC(C)(Oc1ccc(CCNC(=O)c2ccc(Cl)cc2)cc1)C(=O)O [bezafibrate]
Details	drug sensitivity score	relative viability EC50 [µM]
Caco-2 [4]	0	–
Caco-2 [14]	–	> 10
Calu-3 [1]	0	–
Calu-3 [11]	–	> 10
HepG2 [5]	0	–
HepG2 [15]	–	> 10
U2OS [2]	0	–
U2OS [12]	–	> 10
Vero E6 [3]	0	–
Vero E6 [13]	–	> 10

cell viability [%]
Details	Caco-2 [9]	Calu-3 [6]	HepG2 [10]	U2OS [7]	Vero E6 [8]
1 nM	102	110	98.1	102	106
10 nM	95.7	98.5	93.1	97	105
100 nM	96.8	108	91.5	96.2	101
1000 nM	98	97	97.4	94	104
10000 nM	94.3	98.4	102	98.3	93.4

CC[C@H]1CN2CCc3cc(OC)c(OC)cc3[C@@H]2C[C@@H]1C[C@H]1NCCc2cc(OC)c(OC)cc21 [emetine]
Details	drug sensitivity score	relative viability EC50 [µM]
Calu-3 [1]	12	–
Calu-3 [11]	–	0.375
HepG2 [5]	26.2	–
HepG2 [15]	–	0.0543
U2OS [2]	24.3	–
U2OS [12]	–	0.0846
Vero E6 [3]	21.9	–
Vero E6 [13]	–	0.107

Details	SARS-CoV-2 infection rate [%]	cell count [%]	cell viability [%]	drug-induced phospholipidosis [%]	morphology score
A549-ACE2, 0.3 µM	–	–	–	3.73	–
A549-ACE2, 0.833333 µM	–	–	–	5.74	–
Calu-3 [6], 1 nM	–	–	105	–	–
Calu-3 [6], 10 nM	–	–	109	–	–
Calu-3 [6], 100 nM	–	–	99.7	–	–
Calu-3 [6], 1000 nM	–	–	35.3	–	–
Calu-3 [6], 10000 nM	–	–	30.8	–	–
HepG2 [10], 1 nM	–	–	91.7	–	–
HepG2 [10], 10 nM	–	–	97.8	–	–
HepG2 [10], 100 nM	–	–	26.1	–	–
HepG2 [10], 1000 nM	–	–	14.5	–	–
HepG2 [10], 10000 nM	–	–	4.5	–	–
U2OS [7], 1 nM	–	–	101	–	–
U2OS [7], 10 nM	–	–	99.7	–	–
U2OS [7], 100 nM	–	–	43.5	–	–
U2OS [7], 1000 nM	–	–	7	–	–
U2OS [7], 10000 nM	–	–	2	–	–
Vero E6 [8], 1 nM	–	–	94.3	–	–
Vero E6 [8], 10 nM	–	–	103	–	–
Vero E6 [8], 100 nM	–	–	54.9	–	–
Vero E6 [8], 1000 nM	–	–	14	–	–
Vero E6 [8], 10000 nM	–	–	6.9	–	–
[16], 0.1 µM	–	102	–	–	–
[16], 0.3 µM	–	91	–	–	–
[16], 1 µM	–	69	–	–	–
[16], 3 µM	–	59	–	–	–
[17], 0.1 µM	5	–	–	–	–
[17], 0.3 µM	5	–	–	–	–
[17], 1 µM	19	–	–	–	–
[17], 3 µM	23	–	–	–	–
[18], 0.1 µM	–	–	–	–	0.87
[18], 0.3 µM	–	–	–	–	0.7
[18], 1 µM	–	–	–	–	0.44
[18], 3 µM	–	–	–	–	0.43

CCN(CCO)CCCC(C)Nc1ccnc2cc(Cl)ccc12 (configuration not stated) [hydroxychloroquine]
Details	drug sensitivity score	relative viability EC50 [µM]
Caco-2 [4]	0.1	–
Caco-2 [14]	–	> 10
Calu-3 [1]	0	–
Calu-3 [11]	–	> 10
HepG2 [5]	0	–
HepG2 [15]	–	> 10
U2OS [2]	0	–
U2OS [12]	–	> 10
Vero E6 [3]	0	–
Vero E6 [13]	–	> 10

cell viability [%]
Details	Caco-2 [9]	Calu-3 [6]	HepG2 [10]	U2OS [7]	Vero E6 [8]
1 nM	103	94.1	101	97.1	101
10 nM	116	105	95.9	98.1	95.4
100 nM	100	86.8	96.8	93.4	108
1000 nM	102	109	94.6	96.8	93.9
10000 nM	85.4	95.9	89.6	89.4	96.8
